Series [1] addresses PIM1 (Homo sapiens (Human), UniProt P11309). Put plainly: PIM1 kinase activity test (Mobility shift assay). The format is biochemical. On the procedure:
(§1) The efficacy of the compounds on the activity of PIM1/2/3 was tested by utilizing the Mobility shift assay method, with the specific procedures shown as follows: the test compounds were each dissolved in DMSO to be prepared into a 10 mM stock solution; for each of the test compounds, the stock solution was subjected to a 3-fold dilution from an initial concentration of 10 μM to obtain 10 concentrations.
(§2) PIM1, PIM2, and PIM3 (all three kinases are from Carna) were each prepared with 1× Kinase buffer into a kinase solution at a concentration that was 2.5 times the final concentration. 10 μL of kinase solution at a concentration that was 2.5 times the final concentration was added to each of the compound wells and the positive control well, and 10 μL of 1× Kinase buffer was added to the negative control well. The plate was centrifuged at 1000 rpm for 30 s, mixed well by shaking, and then incubated at room temperature for 10 min. A mixed solution of ATP and Kinase substrate 20 (from GL) at a concentration that was 25/15 times the final concentration was prepared with 1× Kinase buffer. The reaction was started by adding 15 μL of the mixed solution of ATP and Kinase substrate 20 at a concentration that was 25/15 times the final concentration. The 384-well plate was centrifuged at 1000 rpm for 30 s, mixed well by shaking, and then incubated at room temperature for 60 min. 30 μL of stop assay buffer was added to stop the kinase reaction. The plate was centrifuged at 1000 rpm for 30 s and mixed well by shaking. The conversion rates were read using Caliper EZ Reader.
(§3) The IC50 values of the test compounds for kinase activity were obtained by adopting a fitted dose-response curve of analytic software GraphPad Prism 5.

The subject of series [2] is Ba/F3-EPOR-JAK2-V617F. Put plainly: Cell inhibitory activity test (72 h CTG). The format is cell-based. As to the method:
The EPOR-JAK2-V617F gene was transferred into Ba/F3 wild-type cells by a retrovirus packaging system to obtain a stably transfected cell line Ba/F3-EPOR-JAK2-V617F, which was used for the cell inhibitory activity ICso test of the compounds (reference: Blood. 2010; 115(15): 3109-3117). The specific procedures were as follows: • Cells were seeded in a 96-well plate, treated with the test compounds from DMSO stock solutions (final concentration of DMSO is 0.2%), and cultured at 37° C. with 5% CO2 for 72 h. Then, the cell proliferation inhibitory activity was assayed by the CTG (Cell-Titer Glo) method. For each of the test compounds, the stock solution was subjected to a 3-fold dilution from an initial concentration of 10 μM to obtain 9 concentrations. The dose-response relationship curve was fitted by using Graphpad 7.0 analysis software, and IC50 values were obtained.

Series [3] concerns the target PIM3 (Homo sapiens (Human), UniProt Q86V86). The series is described as follows: PIM3 kinase activity test (Mobility shift assay). Format: biochemical. As to the method:
as §1, §2, §3

For series [4], the target named is PIM2 (Homo sapiens (Human), UniProt Q9P1W9). The series is described as follows: PIM2 kinase activity test (Mobility shift assay). Format: biochemical. On the procedure: as §1, §2, §3
Series [5] in a line: Pharmacokinetic test. The format is in vivo. The settings on record: BALB/c mice; for AUC(0-t) / clearance / half-life / Vd / Cmax / Tmax: female, mouse, plasma; for half-life: read-out: Terminal t1/2 (converted); for Vd: read-out: Vss. On the procedure: Experimental animals: BALB/c mice, female; weight: 19-25 g.
Preparation of test sample: the target compound was prepared into solutions at 0.4 mg/mL (for intravenous administration) and 5.0 mg/mL (for oral administration) for later use. Route of administration: oral administration/intravenous injection. Dosing volume and frequency: 5 mL/kg (intravenous injection) or 10 mL/kg (oral administration), single dose.
Sample collection: blood was collected at the following time points: 5 min, 15 min, 30 min, 1 hr, 2 hr, 4 hr, 8 hr, and 24 hr after the administration.
Sample analysis: the collected samples were detected by using an LC-MS/MS method. The model of the instrument used was AB Sciex 5500.
Pharmacokinetic data analysis: the resulting plasma concentration data were fitted and calculated according to a non-compartmental model.

This is an account of results in patent US20240124469A1, “PIM KINASE INHIBITOR” (Hangzhou Biosun Pharmaceutical Co., Ltd., priority 2021, published 2024).

Molecules are shown by their SMILES. Read-outs that look alike come from different tables or passages of the source.

Sequence of PIM2 (Q9P1W9 whole entry): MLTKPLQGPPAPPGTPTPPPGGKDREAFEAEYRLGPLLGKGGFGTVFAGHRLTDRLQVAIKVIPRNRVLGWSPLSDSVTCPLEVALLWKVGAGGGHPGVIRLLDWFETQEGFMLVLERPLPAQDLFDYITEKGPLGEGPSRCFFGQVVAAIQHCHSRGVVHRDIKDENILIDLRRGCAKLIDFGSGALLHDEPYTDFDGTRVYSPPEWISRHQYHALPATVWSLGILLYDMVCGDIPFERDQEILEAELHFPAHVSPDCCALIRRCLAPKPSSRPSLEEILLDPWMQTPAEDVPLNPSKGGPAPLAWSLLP
Sequence of PIM1 (P11309 whole entry): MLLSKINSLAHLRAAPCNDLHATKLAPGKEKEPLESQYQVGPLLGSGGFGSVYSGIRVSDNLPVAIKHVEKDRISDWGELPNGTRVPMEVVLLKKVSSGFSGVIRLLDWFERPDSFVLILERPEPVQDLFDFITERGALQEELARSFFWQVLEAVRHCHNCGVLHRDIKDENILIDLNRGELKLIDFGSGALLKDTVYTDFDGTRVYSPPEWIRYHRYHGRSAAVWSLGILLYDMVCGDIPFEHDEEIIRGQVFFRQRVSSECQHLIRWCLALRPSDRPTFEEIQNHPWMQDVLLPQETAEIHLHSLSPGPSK

As usually defined, the IC50 is the concentration that gives 50% inhibition. In the case of `FC(F)(F)c1cccc(-c2cnc3ccc(NC4CC5(CCNCC5)C4)nn23)c1` [Compound 16, N-(7-azaspiro[3.5]nonan-2-yl)-3-[3-(trifluoromethyl)phenyl]imidazo[1,2-b]pyridazin-6-amine], the IC50 is 2 to 10 nM in series [1], greater than 150 nM in series [2], 10 to 100 nM in series [3] and 100 to 1000 nM in series [4].
The AUC(0-t) is exposure summed from dosing to a finite time, without extrapolation to infinity. The clearance is a measure of how efficiently the substance is removed, as volume per time. A high value points to efficient removal. Usually Cmax stands for the highest concentration seen after dosing. Broadly, the Tmax is the time at which the peak concentration occurs. As for `CC(C)(O)[C@H]1CC[C@H](Nc2ccc3ncc(-c4ccc(C(F)(F)F)s4)n3n2)CC1` [Compound 20, 2-((1r,4r)-4-4-((3-(5-(trifluoromethyl)thiophen-2-yl)imidazo[1,2-b]pyridazin-6-yl)amino)cyclohexyl)propan-2-ol], the IC50 in series [1] is less than 2 nM. In addition, the concentration for half-maximal inhibition (IC50) in series [2] is less than 50 nM. For the same compound, the IC50 in series [3] is 10 to 100 nM. For the same compound, the IC50 in series [4] was in the range of 100 to 1000 nM. In addition, in series [5] (oral administration, 50 mg/kg), the F came out at 66.6%, the AUC(0-t) came to 18100 ng·h/mL, the Cmax was found to be 3980 ng/mL and the Tmax stood at 1.33 h. In series [5] (oral administration, 50 mg/kg), the half-life is 3.5 h. For the same compound, in series [5] (intravenous injection, 2 mg/kg), the AUC(0-t) worked out at 1090 ng·h/mL, the clearance is 31 mL/min/kg, the half-life is 1.06 h and the Vd was 1.85 L/kg.
Regarding `FC(F)(F)c1ccc(-c2cnc3ccc(NC4CCCNCC4)nn23)s1` (stereo not shown) [Compound 28, N-(azepan-4-yl)-3-[5-(trifluoromethyl)-2-thienyl] imidazo[1,2-b] pyrid azin-6-amine], the IC50 in series [1] was less than 2 nM; in series [2] it was 50 to 100 nM; in series [3], 10 to 100 nM; in series [4] it was 100 to 1000 nM.
For the compound `OC12CCC(Nc3ccc4ncc(-c5ccc(C(F)(F)F)s5)n4n3)(CC1)CC2` [Compound 29, 4-[[3-[5-(trefluoromethyl)-2-thienyl]imidazo[1,2-b]pyridazin-6-yl]amino]bicyclo [2.2.2] octan-1-ol], the IC50 in series [1] was less than 2 nM. In addition, the IC50 in series [2] was less than 50 nM. Also, in series [3], the IC50 is 10 to 100 nM. Moreover, in series [4], the 50% inhibitory concentration (IC50) was 10 to 100 nM. Moreover, in series [5] (oral administration, 50 mg/kg), the F came to 35.7%, the area under the curve AUC(0-t) was determined as 7650 ng·h/mL, the Cmax amounted to 6670 ng/mL and the Tmax was found to be 0.33 h. Also, the half-life in series [5] (oral administration, 50 mg/kg) was 1.41 h. For the same compound, in series [5] (intravenous injection, 2 mg/kg), the area under the curve AUC(0-t) came to 859 ng·h/mL, the clearance is 39.7 mL/min/kg, the half-life is 0.42 h and the Vd was 1.38 L/kg.
Turning to `FC(F)(F)c1ccc(-c2cnc3ccc(NC4CC5(CCNCC5)C4)nn23)s1` [Compound 31, N-(7-azaspiro[3.5]nonan-2-yl)-3-[5-(trifluoromethyl)-2-thienyl]imidazo[1,2-b]pyridazin-6-amine], the IC50 was less than 2 nM in series [1], 50 to 100 nM in series [2], 10 to 100 nM in series [3] and 100 to 1000 nM in series [4].
Consider `OC[C@@H]1CC[C@@H](Nc2ccc3ncc(-c4ccc(C(F)(F)F)s4)n3n2)CO1` [Compound 46, [(2S,5R)-5-[[3-[5-(trifluoromethyl)-2-thienyl]imidazo[1,2-b]pyridazin-6-yl]amino]tetrahydropyran-2-yl]methanol], for which the concentration for half-maximal inhibition (IC50) in series [1] was in the range of 2 to 10 nM. The compound further yielded an IC50 in series [2] of 100 to 150 nM. The half-inhibitory concentration (IC50) in series [3] fell in the range of 100 to 1000 nM. In addition, the IC50 in series [4] fell in the range of 1000 to 10000 nM. Moreover, in series [5] (oral administration, 50 mg/kg), the F was determined as 89.9%, the AUC(0-t) is 11800 ng·h/mL, the Cmax was determined as 10600 ng/mL and the Tmax was 0.5 h. The half-life in series [5] (oral administration, 50 mg/kg) is 0.91 h. Moreover, in series [5] (intravenous injection, 2 mg/kg), the AUC(0-t) was determined as 523 ng·h/mL, the clearance is 65.8 mL/min/kg, the half-life is 0.26 h and the Vd was determined as 1.47 L/kg.
Consider `CC(C)(O)[C@H]1CC[C@H](Nc2ccc3ncc(-c4cccc(S(C)(=O)=O)c4)n3n2)CC1` [Compound 51, 2-[(1r,4r)-4-[[3-(3-methylsulfonylphenyl)imidazo[1,2-b]pyridazin-6-yl]amino]cyclohexyl]propan-2-ol], for which the IC50 in series [1] is 100 to 1000 nM; in series [3], greater than 10000 nM; in series [4], 1000 to 10000 nM.
Regarding `CC(C)(O)[C@H]1CC[C@H](Nc2ccc3ncc(-c4cccc(C(F)(F)F)c4)n3n2)CC1` [TP-3654, reference compound], the IC50 in series [1] lay within 10 to 100 nM. Further, the half-inhibitory concentration (IC50) in series [2] is greater than 150 nM. For the same compound, the IC50 in series [3] lay in the range of 100 to 1000 nM. Besides, the IC50 in series [4] is 100 to 1000 nM. For the same compound, in series [5] (oral administration, 50 mg/kg), the F is reported as 42.3%, the AUC(0-t) stood at 6800 ng·h/mL, the Cmax turned out to be 2550 ng/mL and the Tmax worked out at 1 h. The half-life in series [5] (oral administration, 50 mg/kg) was 1.33 h. In series [5] (intravenous injection, 2 mg/kg), the AUC(0-t) was found to be 652 ng·h/mL, the clearance is 51.8 mL/min/kg, the half-life was 1.24 h and the Vd turned out to be 5.58 L/kg.
